In BindingDB's records for doi:10.1016/j.bioorg.2017.05.009 (Kinnaird College for Women, 2017):

The compounds below were run against Alpha-glucosidase MAL32 (Saccharomyces cerevisiae, UniProt P38158) (assay: α-Glucosidase Inhibition Assay). Conditions: pH 6.8; 37 °C.
Procedure: For α-glucosidase inhibition assay, α-glucosidase enzyme (Cat No. 5003-1KU Type I; isolated from Saccharomyces cereviciae) was used. Acarbose was the reference standard and Pierre's methodology was employed [Pierre et al., J. Clin. Chem., 24:208-211]. First absorbance was taken at 400 nm after the 10 min incubation of a mixture of phosphate buffer ([…], pH 6.8), test compound ([…], 0.5 mM) and enzyme ([…], 0.0234 units, Sigma Inc.). Later, […] of p-nitrophenyl-α-D-glucopyranoside (0.5 mM, code No. N1377 from Sigma Inc) was added. After 30 min incubation at 37 °C, the absorbance was retaken at 400 nm.

Sequence of Alpha-glucosidase MAL32 (P38158 whole entry): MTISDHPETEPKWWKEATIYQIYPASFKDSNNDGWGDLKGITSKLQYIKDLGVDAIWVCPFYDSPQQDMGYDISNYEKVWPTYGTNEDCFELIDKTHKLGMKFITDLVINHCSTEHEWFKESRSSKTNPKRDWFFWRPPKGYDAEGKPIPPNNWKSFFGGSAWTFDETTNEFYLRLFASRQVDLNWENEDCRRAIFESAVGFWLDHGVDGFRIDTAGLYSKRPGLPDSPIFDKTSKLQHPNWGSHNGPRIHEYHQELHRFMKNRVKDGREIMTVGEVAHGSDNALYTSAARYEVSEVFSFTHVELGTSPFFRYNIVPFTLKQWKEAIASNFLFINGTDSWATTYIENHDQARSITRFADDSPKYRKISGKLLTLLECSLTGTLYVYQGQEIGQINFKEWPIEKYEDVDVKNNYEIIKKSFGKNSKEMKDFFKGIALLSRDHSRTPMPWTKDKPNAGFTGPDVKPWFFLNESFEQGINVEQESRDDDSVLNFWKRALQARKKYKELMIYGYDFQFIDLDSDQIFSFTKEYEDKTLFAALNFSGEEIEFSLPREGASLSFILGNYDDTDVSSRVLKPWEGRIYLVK

Row | SMILES | IC50
1 | Cc1cc(C)cc(-n2c(-c3cn(-c4ccccc4)nc3C3=CC4C=CC=CC4OC3=O)nc(-c3ccccc3)c2-c2ccccc2)c1 (stereo not given) [3-(4-(1-(3,5-Dimethylphenyl)-4,5-diphenyl-1H-imidazol-2-yl)-1-phenyl-1H-pyrazol-3-yl)-4a,8a-dihydro-2H-chromen-2-one (3d)] | 46.4 µM
2 | O=C1OC2C=CC=CC2C=C1c1nn(-c2ccccc2)cc1-c1nc(-c2ccccc2)c(-c2ccccc2)n1-c1ccc(Br)cc1 (stereo not given) [3-(4-(1-(4-Bromophenyl)-4,5-diphenyl-1H-imidazol-2-yl)-1-phenyl-1H-pyrazol-3-yl)-4a,8a-dihydro-2H-chromen-2-one (3b)] | 34.3 µM
3 | O=C1OC2C=CC=CC2C=C1c1nn(-c2ccccc2)cc1-c1nc(-c2ccccc2)c(-c2ccccc2)n1-c1ccc(Cl)cc1 (stereo not given) [3-(4-(1-(4-Chlorophenyl)-4,5-diphenyl-1H-imidazol-2-yl)-1-phenyl-1H-pyrazol-3-yl)-4a,8a-dihydro-2H-chromen-2-one (3a)] | 12.7 µM
4 | COc1ccc(-n2c(-c3cn(-c4ccccc4)nc3C3=CC4C=CC=CC4OC3=O)nc(-c3ccccc3)c2-c2ccccc2)cc1 (stereo not given) [3-(4-(1-(4-Methoxyphenyl)-4,5-diphenyl-1H-imidazol-2-yl)-1-phenyl-1H-pyrazol-3-yl)-4a,8a-dihydro-2H-chromen-2-one (3c)] | 25.4 µM
5 | CCCn1c(-c2cn(-c3ccccc3)nc2C2=CC3C=CC=CC3OC2=O)nc(-c2ccccc2)c1-c1ccccc1 (stereo not given) [3-(4-(4,5-Diphenyl-1-propyl-1H-imidazol-2-yl)-1-phenyl-1Hpyrazol-3-yl)-4a,8a-dihydro-2H-chromen-2-one (3e)] | 44.8 µM
6 | Cc1cc(C)cc(-n2c(-c3cn(-c4ccccc4)nc3C3=CC4C=C(Br)C=CC4OC3=O)nc(-c3ccccc3)c2-c2ccccc2)c1 (stereo not given) [6-Bromo-3-(4-(1-(3,5-dimethylphenyl)-4,5-diphenyl-1Himidazol-2-yl)-1-phenyl-1H-pyrazol-3-yl)-4a,8a-dihydro-2Hchromen-2-one (3g)] | 5.64 µM
7 | O=c1oc2ccc(Br)cc2cc1-c1nn(-c2ccccc2)cc1-c1nc(-c2ccccc2)c(-c2ccccc2)n1-c1ccc(Br)cc1 [6-Bromo-3-(4-(1-(4-bromophenyl)-4,5-diphenyl-1H-imidazol-2-yl)-1-phenyl-1H-pyrazol-3-yl)-2H-chromen-2-one (3j)] | 5.21 µM
8 | O=c1oc2ccc(Br)cc2cc1-c1nn(-c2ccccc2)cc1-c1nc(-c2ccccc2)c(-c2ccccc2)n1-c1ccc(Cl)cc1 [6-Bromo-3-(4-(1-(4-chlorophenyl)-4,5-diphenyl-1H-imidazol-2-yl)-1-phenyl-1H-pyrazol-3-yl)-2H-chromen-2-one (3f)] | 2.53 µM
9 | COc1ccc(-n2c(-c3cn(-c4ccccc4)nc3-c3cc4cc(Br)ccc4oc3=O)nc(-c3ccccc3)c2-c2ccccc2)cc1 [6-Bromo-3-(4-(1-(4-methoxyphenyl)-4,5-diphenyl-1Himidazol-2-yl)-1-phenyl-1H-pyrazol-3-yl)-2H-chromen-2-one (3h)] | 9.27 µM
10 | Cc1ccc(-n2c(-c3cn(-c4ccccc4)nc3-c3cc4cc(Br)ccc4oc3=O)nc(-c3ccccc3)c2-c2ccccc2)cc1 [6-Bromo-3-(4-(4,5-diphenyl-1-(p-tolyl)-1H-imidazol-2-yl)-1-phenyl-1H-pyrazol-3-yl)-2H-chromen-2-one (3i)] | 5.83 µM
